# According to patent publication US3970648A, “2-[2-(5-Nitro-2-furyl)vinyl]-4-(anilino)quinazolines” (Diamond Shamrock Corporation, priority 1974, dated 1976):
# Tests used:
# Assay type in all cases: cell-based
# Escherichia coli = experiment: Bactericide test, Escherichia coli (agar streak plate)
# Text: (§1) Test formulations were examined for bactericidal and/or bacteriostatic activity against the test organisms shown in Tables A and B. These organisms were chosen as being representative of commercially important pathogens affecting animal agriculture. The antibiotic chlortetracycline was chosen as a positive control, since it has a broad spectrum of activity against a large number of organisms, and its activity can be used for comparative purposes.
# (§2) Basic test formulations of the product of Examples I, II, III, and of chlortetracycline were prepared by dissolving 16 mg (0.016 g) in 2.0 ml of stock emulsifier solution (0.25% Triton X-155 in acetone by volume) and making each solution up to 50 ml with deionized water. The concentration of the test compound in the basic formulation was 320 ppm. Lower concentrations of the test compound were obtained by diluting the basic formulation with a 4% solution of the stock emulsifier in deionized water so that each dilution in the series differed only in test compound content.
# (§3) Nutrient-tryptic soy agar (NTA) consisting of 2.0% Difco Bactoagar 0.8% nutrient broth (Difco), and 0.5% tryptic soy broth (Difco) was prepared and sterilized by autoclaving. A 2 ml aliquot of each test formulation was added to 8 ml of molten NTA. This mixture was then plated in a sterile polystyrene petri dish (100 × 15 mm). After the agar was set, suspensions of each of the test organisms were simultaneously streaked onto the surface of the agar. The inoculated plates were incubated for 48 hr at 28°C. The inhibition of growth of each organism was rated by visual comparison with the organism developing on non-treated agar. Growth inhibition reported as per cent control was rated in three categories as follows: 0% control, growth equivalent to that on non-treated agar; 50% control, sparse development and separated colonies; 100% control, no visible growth or development of colonies.
# (§4) Test formulations of the product of Example IV were examined for bactericidal and/or bacteriostatic activity against the test organisms shown in Table B using the Bactericide Test described in Example V. The inhibition of organism growth with each diluted test formulation was rated visually by comparison with the organism developing on a non-treated control agar plate. Growth inhibition reported as per cent control was rated in three categories as follows: 0% control, growth equivalent to that on non-treated agar; 50% control is sparse development and separated colonies; and 100% control, development of individual colonies was not apparent.
# Streptococcus faecalis = experiment: Bactericide test, Streptococcus faecalis (agar streak plate)
# Outline: (§5)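 Compounds in Triton X-155/acetone emulsifier (basic formulation 320 ppm, diluted serially) were mixed 2:8 into molten nutrient-tryptic soy agar, then organisms streaked on the set plates. After 48 hr at 28°C, growth was scored visually against untreated agar as 0%, 50% (sparse, separated colonies) or 100% control (no visible colonies).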
# Salmonella gallinarum = experiment: Bactericide test, Salmonella gallinarum (agar streak plate); details: Salmonella enterica, GALLINARUM
# Outline: as §5
# Staphylococcus aureus = experiment: Bactericide test, Staphylococcus aureus (agar streak plate); details: Staphylococcus aureus
# Text: as §1, §2, §3, §4
# Salmonella cholerasuis = experiment: Bactericide test, Salmonella cholerasuis (agar streak plate); details: Salmonella
# Outline: as §5
# Streptococcus group E = experiment: Bactericide test, Streptococcus group E (agar streak plate)
# Outline: (§6)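 Compounds were formulated with Triton X-155/acetone emulsifier (basic formulation 320 ppm, serially diluted) and mixed 2:8 into molten nutrient-tryptic soy agar. Organisms were streaked onto the plates and incubated 48 hr at 28°C. Growth inhibition was scored visually against untreated agar as 0, 50 or 100% control.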
# Streptococcus agalactiae = experiment: Bactericide test, Streptococcus agalactiae (agar streak plate)
# Outline: as §6
# [1] = system: Bordetella bronchiseptica; experiment: Bactericide test, Bordetella bronchiseptica (agar streak plate)
# Outline: as §6
# [2] = system: Erysipelothrix rhusiopathiae; experiment: Bactericide test, Erysipelothrix rhusiopathiae (agar streak plate)
# Outline: as §6
# Salmonella typhimurium = experiment: Bactericide test, Salmonella typhimurium (agar streak plate); details: Salmonella enterica, TYPHIMURIUM
# Text: as §1, §2, §3
# Vibrio coli = experiment: Bactericide test, Vibrio coli (agar streak plate)
# Outline: as §6
# [3] = 100% inhibition at lower concentrations
smiles,measurement,setting,value
"O=[N+]([O-])c1ccc(C=Cc2nc(Nc3ccc(O)cc3)c3ccccc3n2)o1 [Example I, 2-[2-(5-nitro-2-furyl)vinyl]-4-(p-hydroxyanilino)quinazoline]",inhibition at 0.125 ppm,Escherichia coli; 0.125 ppm,0%
same,inhibition at 0.25 ppm,Escherichia coli; 0.25 ppm,0%
same,inhibition at 0.5 ppm,Escherichia coli; 0.5 ppm,0%
same,inhibition at 1 ppm,"Escherichia coli; 1 ppm, read-out: % Inhibition",0%
same,inhibition at 2 ppm,Escherichia coli; 2 ppm,0%
same,inhibition at 4 ppm,"Escherichia coli; 4 ppm, read-out: % Inhibition",0%
same,inhibition at 8 ppm,Escherichia coli; 8 ppm,0%
same,inhibition at 16 ppm,"Escherichia coli; 16 ppm, read-out: % Inhibition",0%
same,inhibition at 32 ppm,Escherichia coli; 32 ppm,0%
same,inhibition at 64 ppm,"Escherichia coli; 64 ppm, read-out: % Inhibition",0%
same,effectiveness compared with chlortetracycline (in words),Streptococcus faecalis; [3],considerably more effective
same,inhibition at 0.125 ppm,"Streptococcus faecalis; Enterococcus faecalis, 0.125 ppm",100%
same,inhibition at 0.25 ppm,"Streptococcus faecalis; Enterococcus faecalis, 0.25 ppm",100%
same,inhibition at 0.5 ppm,"Streptococcus faecalis; Enterococcus faecalis, 0.5 ppm",100%
same,inhibition at 1 ppm,"Streptococcus faecalis; Enterococcus faecalis, 1 ppm, read-out: % Inhibition",100%
same,inhibition at 2 ppm,"Streptococcus faecalis; Enterococcus faecalis, 2 ppm",100%
same,inhibition at 4 ppm,"Streptococcus faecalis; Enterococcus faecalis, 4 ppm, read-out: % Inhibition",100%
same,inhibition at 8 ppm,"Streptococcus faecalis; Enterococcus faecalis, 8 ppm",100%
same,inhibition at 16 ppm,"Streptococcus faecalis; Enterococcus faecalis, 16 ppm, read-out: % Inhibition",100%
same,inhibition at 32 ppm,"Streptococcus faecalis; Enterococcus faecalis, 32 ppm",100%
same,inhibition at 64 ppm,"Streptococcus faecalis; Enterococcus faecalis, 64 ppm, read-out: % Inhibition",100%
same,inhibition at 0.125 ppm,Salmonella gallinarum; 0.125 ppm,0%
same,inhibition at 0.25 ppm,Salmonella gallinarum; 0.25 ppm,0%
same,inhibition at 0.5 ppm,Salmonella gallinarum; 0.5 ppm,0%
same,inhibition at 1 ppm,Salmonella gallinarum; 1 ppm,0%
same,inhibition at 2 ppm,Salmonella gallinarum; 2 ppm,0%
same,inhibition at 4 ppm,Salmonella gallinarum; 4 ppm,0%
same,inhibition at 8 ppm,Salmonella gallinarum; 8 ppm,0%
same,inhibition at 16 ppm,Salmonella gallinarum; 16 ppm,0%
same,inhibition at 32 ppm,Salmonella gallinarum; 32 ppm,0%
same,inhibition at 64 ppm,Salmonella gallinarum; 64 ppm,0%
same,inhibition at 0.125 ppm,Staphylococcus aureus; 0.125 ppm,0%
same,inhibition at 0.25 ppm,Staphylococcus aureus; 0.25 ppm,0%
same,inhibition at 0.5 ppm,Staphylococcus aureus; 0.5 ppm,0%
same,inhibition at 1 ppm,"Staphylococcus aureus; 1 ppm, read-out: % Inhibition",0%
same,inhibition at 2 ppm,Staphylococcus aureus; 2 ppm,0%
same,inhibition at 4 ppm,"Staphylococcus aureus; 4 ppm, read-out: % Inhibition",0%
same,inhibition at 8 ppm,Staphylococcus aureus; 8 ppm,0%
same,inhibition at 16 ppm,"Staphylococcus aureus; 16 ppm, read-out: % Inhibition",0%
same,inhibition at 32 ppm,Staphylococcus aureus; 32 ppm,0%
same,inhibition at 64 ppm,"Staphylococcus aureus; 64 ppm, read-out: % Inhibition",0%
same,inhibition at 0.125 ppm,Salmonella cholerasuis; 0.125 ppm,0%
same,inhibition at 0.25 ppm,Salmonella cholerasuis; 0.25 ppm,0%
same,inhibition at 0.5 ppm,Salmonella cholerasuis; 0.5 ppm,0%
same,inhibition at 1 ppm,"Salmonella cholerasuis; 1 ppm, read-out: % Inhibition",0%
same,inhibition at 2 ppm,Salmonella cholerasuis; 2 ppm,0%
same,inhibition at 4 ppm,"Salmonella cholerasuis; 4 ppm, read-out: % Inhibition",0%
same,inhibition at 8 ppm,Salmonella cholerasuis; 8 ppm,0%
same,inhibition at 16 ppm,"Salmonella cholerasuis; 16 ppm, read-out: % Inhibition",0%
same,inhibition at 32 ppm,Salmonella cholerasuis; 32 ppm,0%
same,inhibition at 64 ppm,"Salmonella cholerasuis; 64 ppm, read-out: % Inhibition",0%
same,inhibition at 0.125 ppm,Streptococcus group E; 0.125 ppm,100%
same,inhibition at 0.25 ppm,Streptococcus group E; 0.25 ppm,100%
same,inhibition at 0.5 ppm,Streptococcus group E; 0.5 ppm,100%
same,inhibition at 1 ppm,"Streptococcus group E; 1 ppm, read-out: % Inhibition",100%
same,inhibition at 2 ppm,Streptococcus group E; 2 ppm,100%
same,inhibition at 4 ppm,"Streptococcus group E; 4 ppm, read-out: % Inhibition",100%
same,inhibition at 8 ppm,Streptococcus group E; 8 ppm,100%
same,inhibition at 16 ppm,"Streptococcus group E; 16 ppm, read-out: % Inhibition",100%
same,inhibition at 32 ppm,Streptococcus group E; 32 ppm,100%
same,inhibition at 64 ppm,"Streptococcus group E; 64 ppm, read-out: % Inhibition",100%
same,effectiveness compared with chlortetracycline (in words),Streptococcus group E; [3],considerably more effective
same,effectiveness compared with chlortetracycline (in words),Streptococcus agalactiae; [3],considerably more effective
same,inhibition at 0.125 ppm,"Streptococcus agalactiae; Streptococcus agalactiae, 0.125 ppm",100%
same,inhibition at 0.25 ppm,"Streptococcus agalactiae; Streptococcus agalactiae, 0.25 ppm",100%
same,inhibition at 0.5 ppm,"Streptococcus agalactiae; Streptococcus agalactiae, 0.5 ppm",100%
same,inhibition at 1 ppm,"Streptococcus agalactiae; Streptococcus agalactiae, 1 ppm, read-out: % Inhibition",100%
same,inhibition at 2 ppm,"Streptococcus agalactiae; Streptococcus agalactiae, 2 ppm",100%
same,inhibition at 4 ppm,"Streptococcus agalactiae; Streptococcus agalactiae, 4 ppm, read-out: % Inhibition",100%
same,inhibition at 8 ppm,"Streptococcus agalactiae; Streptococcus agalactiae, 8 ppm",100%
same,inhibition at 16 ppm,"Streptococcus agalactiae; Streptococcus agalactiae, 16 ppm, read-out: % Inhibition",100%
same,inhibition at 32 ppm,"Streptococcus agalactiae; Streptococcus agalactiae, 32 ppm",100%
same,inhibition at 64 ppm,"Streptococcus agalactiae; Streptococcus agalactiae, 64 ppm, read-out: % Inhibition",100%
same,effectiveness compared with chlortetracycline (in words),[1]; [3],considerably more effective
same,inhibition at 0.125 ppm,"[1]; Bordetella bronchiseptica, 0.125 ppm",100%
same,inhibition at 0.25 ppm,"[1]; Bordetella bronchiseptica, 0.25 ppm",100%
same,inhibition at 0.5 ppm,"[1]; Bordetella bronchiseptica, 0.5 ppm",100%
same,inhibition at 1 ppm,"[1]; Bordetella bronchiseptica, 1 ppm, read-out: % Inhibition",100%
same,inhibition at 2 ppm,"[1]; Bordetella bronchiseptica, 2 ppm",100%
same,inhibition at 4 ppm,"[1]; Bordetella bronchiseptica, 4 ppm, read-out: % Inhibition",100%
same,inhibition at 8 ppm,"[1]; Bordetella bronchiseptica, 8 ppm",100%
same,inhibition at 16 ppm,"[1]; Bordetella bronchiseptica, 16 ppm, read-out: % Inhibition",100%
same,inhibition at 32 ppm,"[1]; Bordetella bronchiseptica, 32 ppm",100%
same,inhibition at 64 ppm,"[1]; Bordetella bronchiseptica, 64 ppm, read-out: % Inhibition",100%
same,effectiveness compared with chlortetracycline (in words),[2]; [3],considerably more effective
same,inhibition at 0.125 ppm,"[2]; Erysipelothrix rhusiopathiae, 0.125 ppm",100%
same,inhibition at 0.25 ppm,"[2]; Erysipelothrix rhusiopathiae, 0.25 ppm",100%
same,inhibition at 0.5 ppm,"[2]; Erysipelothrix rhusiopathiae, 0.5 ppm",100%
same,inhibition at 1 ppm,"[2]; Erysipelothrix rhusiopathiae, 1 ppm",100%
same,inhibition at 2 ppm,"[2]; Erysipelothrix rhusiopathiae, 2 ppm",100%
same,inhibition at 4 ppm,"[2]; Erysipelothrix rhusiopathiae, 4 ppm",100%
same,inhibition at 8 ppm,"[2]; Erysipelothrix rhusiopathiae, 8 ppm",100%
same,inhibition at 16 ppm,"[2]; Erysipelothrix rhusiopathiae, 16 ppm",100%
same,inhibition at 32 ppm,"[2]; Erysipelothrix rhusiopathiae, 32 ppm",100%
same,inhibition at 64 ppm,"[2]; Erysipelothrix rhusiopathiae, 64 ppm",100%
same,inhibition at 0.125 ppm,Salmonella typhimurium; 0.125 ppm,0%
same,inhibition at 0.25 ppm,Salmonella typhimurium; 0.25 ppm,0%
same,inhibition at 0.5 ppm,Salmonella typhimurium; 0.5 ppm,0%
same,inhibition at 1 ppm,"Salmonella typhimurium; 1 ppm, read-out: % Inhibition",0%
same,inhibition at 2 ppm,Salmonella typhimurium; 2 ppm,0%
same,inhibition at 4 ppm,"Salmonella typhimurium; 4 ppm, read-out: % Inhibition",0%
same,inhibition at 8 ppm,Salmonella typhimurium; 8 ppm,0%
same,inhibition at 16 ppm,"Salmonella typhimurium; 16 ppm, read-out: % Inhibition",0%
same,inhibition at 32 ppm,Salmonella typhimurium; 32 ppm,0%
same,inhibition at 64 ppm,"Salmonella typhimurium; 64 ppm, read-out: % Inhibition",0%
same,effectiveness compared with chlortetracycline (in words),Vibrio coli; [3],considerably more effective
same,inhibition at 0.125 ppm,"Vibrio coli; Campylobacter coli, 0.125 ppm",100%
same,inhibition at 0.25 ppm,"Vibrio coli; Campylobacter coli, 0.25 ppm",100%
same,inhibition at 0.5 ppm,"Vibrio coli; Campylobacter coli, 0.5 ppm",100%
same,inhibition at 1 ppm,"Vibrio coli; Campylobacter coli, 1 ppm",100%
same,inhibition at 2 ppm,"Vibrio coli; Campylobacter coli, 2 ppm",100%
same,inhibition at 4 ppm,"Vibrio coli; Campylobacter coli, 4 ppm",100%
same,inhibition at 8 ppm,"Vibrio coli; Campylobacter coli, 8 ppm",100%
same,inhibition at 16 ppm,"Vibrio coli; Campylobacter coli, 16 ppm",100%
same,inhibition at 32 ppm,"Vibrio coli; Campylobacter coli, 32 ppm",100%
same,inhibition at 64 ppm,"Vibrio coli; Campylobacter coli, 64 ppm",100%
